Test results as given in US3996229A, “1-[10,11-Dihydro-dibenzo[b,f]-thiepin-10-yl]-4-(alkynylalkyl)-piperazines” (Hoffmann-La Roche Inc., priority 1974, dated 1976).

Legend:
rats [1] = test: Catalepsy Test; format: in vivo, rat; conditions: rats, intraperitoneally
Description: (§1) Representative dibenzo[b,f]thiepin derivatives of this invention were administered intraperitoneally to rats. The animals are considered to be cataleptic when the homolateral extremities remain in a crossed position for at least 10 seconds. The number of cataleptic animals is noted every 30 minutes for 6 hours.

mouse = test: Acute toxicity in the mouse; format: in vivo; conditions: acute toxicity, 24 hours
Description: (§2) The values relate to a duration of activity over a period of 24 hours: […]

rats [2] = test: "Pole Climbing" Test (neuroleptic properties; blocking of conditioned and unconditioned reaction); format: in vivo, rat; conditions: for Quotient ED10 (blocking of the unconditioned reaction)/ED50 (blocking of the conditioned reaction) / ED50: rats; for Quotient ED10 (blocking of the unconditioned reaction)/ED50 (blocking of the conditioned reaction): p.o., higher quotient = greater selectivity of the neuroleptic action; for ED50: Rattus norvegicus, po, pole climbing, conditioned impulse (acoustic signal)
Description: The neuroleptic properties of the foregoing derivatives were determined numerically on the basis of the following test, i.e., the "pole climbing" test.
This test provides information about the behavior reaction of rats. Rats are trained to avoid, by climbing up a vertical pole in the test chamber, an electrical impulse--unconditioned impulse--released via the wire-latticed floor some seconds after an acoustic signal--conditioned impulse--.
The blocking of the conditioned reaction is designated by the parameter ED50 (mg/kg p.o.) and the blocking of the unconditioned reaction is designated by the parameter ED10 (mg/kg p.o.).
The parameter ED50 --blocking of the conditioned reaction--provides a measure of the neuroleptic activity strength of the derivative under investigation since, with falling value, the neuroleptic activity strength increases.

Catalepsy Test = format: in vivo, rat; conditions: rat, in vivo, ip
Description: as §1

[3] = Acute toxicity in the mouse; format: in vivo; conditions: in vivo, po, period of 24 hours
Description: as §2

[4] = pole climbing test, chlorpromazine compared with Derivative A and Derivative B

| Compound | cataleptic side-effects (in words) (rats [1]) | toxicity (in words) (mouse) | neuroleptic activity (in words) (rats [2]; [4]) | quality (selectivity) of the neuroleptic activity (in words) (rats [2]; [4]) | Quotient ED10 (blocking of the unconditioned reaction)/ED50 (blocking of the conditioned reaction) (rats [2]) | TD50 at 6 h (Catalepsy Test) [mg/kg] | LD50 at 24 h [3] [mg/kg] | ED50 (rats [2]) [mg/kg] |
| --- | --- | --- | --- | --- | --- | --- | --- | --- |
| CN(C)CCCN1c2ccccc2Sc2ccc(Cl)cc21 [Chlorpromazine, reference compound] | considerably greater cataleptic activity | clearly inferior | somewhat stronger activity | clearly inferior | 2.5 | – | – | – |
| C#CCN1CCN(C2Cc3ccc(OC)cc3Sc3ccc(SC)cc32)CC1.Cl.Cl (stereo not drawn) [Derivative A, 1-[10,11-Dihydro-3-methoxy-8-methylthio-dibenzo[b,f]thiepin-10-yl]-4-(2-propynyl)-piperazine dihydrochloride] | only very slight or no cataleptic side-effects | – | – | – | 9 | 88 | 900 | 17 |
| C#CCN1CCN(C2Cc3ccc(OC)cc3Sc3ccc(Cl)cc32)CC1.CS(=O)(=O)O.CS(=O)(=O)O (stereo not drawn) [Derivative B, 1-[8-Chloro-10,11-dihydro-3-methoxy-dibenzo[b,f]thiepin-10-yl]-4-(2-propynyl)-piperazine dimethanesulfonate] | only very slight or no cataleptic side-effects | – | – | – | 4 | > 100 | 750 | 25 |
